According to PMC6934184, “Selective DNA-PKcs inhibition extends the therapeutic index of localized radiotherapy and chemotherapy” (The Journal of Clinical Investigation, 2019):

Target: T1, TGFBR1 (ALK5) (Homo sapiens, UniProt P36897)
T1 construct: purchased Thermo Fisher Scientific (Life Technologies) SelectScreen
Test: SelectScreen LanthaScreen
Type: binding
Settings: read-out: % displacement
Outline: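 NU5455 was profiled across the SelectScreen Broad panel of kinase activity and binding assays. Z'LYTE reactions such as CSF1R ran at apparent Km ATP, while the Adapta CAMK1 assay used ATP listed as 10. Values are given as percent.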

T1 sequence (P36897 34-503): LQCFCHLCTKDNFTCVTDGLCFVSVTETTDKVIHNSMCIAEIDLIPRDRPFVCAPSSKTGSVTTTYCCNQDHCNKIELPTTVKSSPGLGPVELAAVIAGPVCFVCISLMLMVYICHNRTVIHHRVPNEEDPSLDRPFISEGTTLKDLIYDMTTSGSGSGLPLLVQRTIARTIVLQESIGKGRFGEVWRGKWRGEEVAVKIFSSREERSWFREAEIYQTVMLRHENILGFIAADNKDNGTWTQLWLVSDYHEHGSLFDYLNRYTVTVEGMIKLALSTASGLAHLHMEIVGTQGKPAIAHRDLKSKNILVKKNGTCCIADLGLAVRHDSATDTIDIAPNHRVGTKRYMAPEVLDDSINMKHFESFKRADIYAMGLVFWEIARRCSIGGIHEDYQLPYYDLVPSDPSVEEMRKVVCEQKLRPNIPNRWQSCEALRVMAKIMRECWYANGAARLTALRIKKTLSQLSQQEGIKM

`CN(C(=O)CN1CCOCC1)c1ccc2sc3c(-c4cccc5c(=O)cc(N6CC7CCC(C6)O7)oc45)cccc3c2c1` [NU5455] showed an inhibition at 1 µM of -0.4%.
